ChEMBL document CHEMBL3044564, “Synthesis and antihypertensive activity evaluation in spontaneously hypertensive rats of lacidipine analogues” (2012)

How the values were obtained:
Rattus norvegicus [1] = experiment: Antihypertensive activity in spontaneously hypertensive Rattus norvegicus (rat) assessed as reduced systolic blood pressure at 2 mg/kg intragastrically administered measured at 20 hr post compound treatment (reference value: -2 +/- 4 mmHg); assay type: functional, Artery; settings: route intragastric
Rattus norvegicus [2] = experiment: Antihypertensive activity in spontaneously hypertensive Rattus norvegicus (rat) assessed as reduced systolic blood pressure at 2 mg/kg intragastrically administered measured at 8 hr post compound treatment (reference value: -3 +/- 3 mmHg); assay type: functional, Artery; settings: route intragastric
Rattus norvegicus [3] = experiment: Antihypertensive activity in spontaneously hypertensive Rattus norvegicus (rat) assessed as reduced systolic blood pressure at 2 mg/kg intragastrically administered measured at 6 hr post compound treatment (reference value: -2 +/- 3 mmHg); assay type: functional, Artery; settings: route intragastric
Rattus norvegicus [4] = experiment: Antihypertensive activity in spontaneously hypertensive Rattus norvegicus (rat) assessed as reduced systolic blood pressure at 2 mg/kg intragastrically administered measured at 4 hr post compound treatment (reference value: -1 +/- 3 mmHg); assay type: functional, Artery; settings: route intragastric
Rattus norvegicus [5] = experiment: Antihypertensive activity in spontaneously hypertensive Rattus norvegicus (rat) assessed as reduced systolic blood pressure at 2 mg/kg intragastrically administered measured at 2 hr post compound treatment (reference value: -1 +/- 2 mmHg); assay type: functional, Artery; settings: route intragastric
Rattus norvegicus [6] = experiment: Antihypertensive activity in spontaneously hypertensive Rattus norvegicus (rat) assessed as reduced systolic blood pressure at 2 mg/kg intragastrically administered measured at 1 hr post compound treatment (reference value: 1 +/- 3 mmHg); assay type: functional, Artery; settings: route intragastric
Rattus norvegicus [7] = experiment: Antihypertensive activity in spontaneously hypertensive Rattus norvegicus (rat) assessed as reduction in systolic blood pressure compound intragastrically administered measured at 1 to 20 hr post compound treatment; assay type: functional, organism-based; settings: Artery
Rattus norvegicus [8] = experiment: Antihypertensive activity in spontaneously hypertensive Rattus norvegicus (rat) assessed as reduced systolic blood pressure at 1 mg/kg intragastrically administered measured at 6 hr post compound treatment (reference value: -2 +/- 3 mmHg); assay type: functional, Artery; settings: route intragastric
Rattus norvegicus [9] = experiment: Antihypertensive activity in spontaneously hypertensive Rattus norvegicus (rat) assessed as reduced systolic blood pressure at 1 mg/kg intragastrically administered measured at 4 hr post compound treatment (reference value: -1 +/- 3 mmHg); assay type: functional, Artery; settings: route intragastric
Rattus norvegicus [10] = experiment: Antihypertensive activity in spontaneously hypertensive Rattus norvegicus (rat) assessed as reduced systolic blood pressure at 1 mg/kg intragastrically administered measured at 2 hr post compound treatment (reference value: -1 +/- 2 mmHg); assay type: functional, Artery; settings: route intragastric
Rattus norvegicus [11] = experiment: Antihypertensive activity in spontaneously hypertensive Rattus norvegicus (rat) assessed as reduced systolic blood pressure at 1 mg/kg intragastrically administered measured at 1 hr post compound treatment (reference value: 1 +/- 3 mmHg); assay type: functional, Artery; settings: route intragastric
Rattus norvegicus [12] = experiment: Antihypertensive activity in spontaneously hypertensive Rattus norvegicus (rat) assessed as reduced systolic blood pressure at 0.5 mg/kg intragastrically administered measured at 1 hr post compound treatment (reference value: 1 +/- 3 mmHg); assay type: functional, Artery; settings: route intragastric
Rattus norvegicus [13] = experiment: Antihypertensive activity in spontaneously hypertensive Rattus norvegicus (rat) assessed as reduced systolic blood pressure at 1 mg/kg intragastrically administered; assay type: functional, Artery; settings: route intragastric

Q: Which Activity (Rattus norvegicus [1]) does the source give for `CCOC(=O)C1=C(C)NC(C)=C(C(=O)OCC)C1c1ccccc1/C=C/C(=O)N(C)C(C)(C)C` here?
A: 25 mmHg

Q: And the Activity (Rattus norvegicus [2])?
A: 43 mmHg

Q: And the Activity (Rattus norvegicus [3])?
A: 45 mmHg

Q: What about the Activity (Rattus norvegicus [4]) of the same compound?
A: 47 mmHg

Q: And the Activity (Rattus norvegicus [5])?
A: 53 mmHg

Q: And the Activity (Rattus norvegicus [6])?
A: 44 mmHg

Q: What about the Activity (Rattus norvegicus [7]) of the same compound?
A: Dose-dependent effect

Q: And the Activity (Rattus norvegicus [8])?
A: 3 mmHg

Q: What about the Activity (Rattus norvegicus [9]) of the same compound?
A: 20 mmHg

Q: And the Activity (Rattus norvegicus [10])?
A: 34 mmHg

Q: What about the Activity (Rattus norvegicus [11]) of the same compound?
A: 46 mmHg

Q: What about the Activity (Rattus norvegicus [12]) of the same compound?
A: 11 mmHg

Q: What about the Activity (Rattus norvegicus [13]) of the same compound?
A: 46 mmHg

Q: How did the Activity (Rattus norvegicus [13]) turn out when `CCOC(=O)C1=C(C)NC(C)=C(C(=O)OCC)C1c1ccccc1/C=C/C(=O)N1CCCCC1` was run?
A: 22 mmHg

Q: For `CCOC(=O)C1=C(C)NC(C)=C(C(=O)OCC)C1c1ccccc1/C=C/C(=O)OC(C)(C)C` [LACIDIPINE], which Activity (Rattus norvegicus [13]) is on record?
A: 50 mmHg

Q: Which Activity (Rattus norvegicus [13]) does the source give for `CCOC(=O)C1=C(C)NC(C)=C(C(=O)OCC)C1c1ccccc1/C=C/C(=O)N(CC)CC` here?
A: 33 mmHg

Q: With `CCCCN(C)C(=O)/C=C/c1ccccc1C1C(C(=O)OCC)=C(C)NC(C)=C1C(=O)OCC` as the compound, how does the Activity (Rattus norvegicus [13]) read?
A: 27 mmHg

Q: `CCOC(=O)C1=C(C)NC(C)=C(C(=O)OCC)C1c1ccccc1/C=C/C(=O)NC(C)(C)C` was tested. Which Activity (Rattus norvegicus [13]) did it give?
A: 44 mmHg

Q: `CCOC(=O)C1=C(C)NC(C)=C(C(=O)OCC)C1c1ccccc1/C=C/C(=O)NCC(C)C` was tested. Which Activity (Rattus norvegicus [13]) did it give?
A: 15 mmHg
